Earlier results as cited in patent US12458674B2, “M13 phage based gene therapy platform” (Massachusetts Institute of Technology, priority 2021, dated 2025).

Details: in vivo

CSF to plasma ratio: about 20%
Structure (SMILES): Cn1nnc2c(C(N)=O)ncn2c1=O [temozolomide]
